From ChEMBL document CHEMBL1201862, “PubChem BioAssay data set” (2004)
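Exposure lasted 48 hours, with cells grown in 96-well plates and compounds tested at five concentrations. GI50 is the concentration that inhibits growth by half.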 Active and inactive are the calls of the source. No stated cut-off is given here; in the data, active = GI50 up to about 1.1 µM and inactive = higher.

Columns and labels:
Test in all cases: DTP human tumour cell line panel, 48 h
HT-29 = test system: HT-29
Hs-578T = test system: Hs-578T
UACC-62 = test system: UACC-62
A498 = test system: A498
A549 = test system: A549
HL-60 = test system: HL-60
RPMI-8226 = test system: RPMI-8226
KM12 = test system: KM12
786-0 = test system: 786-0
MCF7 = test system: MCF7
COLO 205 = test system: COLO 205
NCI-H522 = test system: NCI-H522
MDA-N = test system: MDA-N
SK-MEL-2 = test system: SK-MEL-2
NCI/ADR-RES = test system: NCI/ADR-RES
TK-10 = test system: TK-10
EKVX = test system: EKVX
M14 = test system: M14
T47D = test system: T47D
IGROV-1 = test system: IGROV-1
NCI-H226 = test system: NCI-H226
SNB-19 = test system: SNB-19
SN12C = test system: SN12C
OVCAR-8 = test system: OVCAR-8
DU-145 = test system: DU-145
OVCAR-3 = test system: OVCAR-3
OVCAR-5 = test system: OVCAR-5
SR = test system: SR
HCT-116 = test system: HCT-116
MDA-MB-435 = test system: MDA-MB-435
MDA-MB-231 = test system: MDA-MB-231
SW-620 = test system: SW-620
BT-549 = test system: BT-549
SK-OV-3 = test system: SK-OV-3
CAKI-1 = test system: CAKI-1
LOX IMVI = test system: LOX IMVI
ACHN = test system: ACHN
HOP-62 = test system: HOP-62
NCI-H23 = test system: NCI-H23
SF-539 = test system: SF-539
SK-MEL-5 = test system: SK-MEL-5
PC-3 = test system: PC-3
SF-268 = test system: SF-268
OVCAR-4 = test system: OVCAR-4
U-251 = test system: U-251
UACC-257 = test system: UACC-257
UO-31 = test system: UO-31
MOLT-4 = test system: MOLT-4
Malme-3M = test system: Malme-3M
HCT-15 = test system: HCT-15
SF-295 = test system: SF-295
SK-MEL-28 = test system: SK-MEL-28
HOP-92 = test system: HOP-92

## CN1CC[C@]23c4c5ccc(O)c4O[C@H]2C(O)CC[C@@]3(O)[C@H]1C5 (stereo partly drawn)
HT-29
  GI50: > 100 µM (inactive)
Hs-578T
  GI50: > 100 µM (inactive)
UACC-62
  GI50: > 100 µM (inactive)
A498
  GI50: > 100 µM (inactive)
A549
  GI50: > 100 µM (inactive)
HL-60
  GI50: > 100 µM (inactive)
RPMI-8226
  GI50: > 100 µM (inactive)
KM12
  GI50: > 100 µM (inactive)
786-0
  GI50: > 100 µM (inactive)
MCF7
  GI50: > 100 µM (inactive)
COLO 205
  GI50: > 100 µM (inactive)
NCI-H522
  GI50: > 100 µM (inactive)
MDA-N
  GI50: > 100 µM (inactive)
SK-MEL-2
  GI50: > 100 µM (inactive)
NCI/ADR-RES
  GI50: > 100 µM (inactive)
TK-10
  GI50: > 100 µM (inactive)
EKVX
  GI50: > 100 µM (inactive)
M14
  GI50: > 100 µM (inactive)
T47D
  GI50: > 100 µM (inactive)
IGROV-1
  GI50: > 100 µM (inactive)
NCI-H226
  GI50: > 100 µM (inactive)
SNB-19
  GI50: > 100 µM (inactive)
SN12C
  GI50: > 100 µM (inactive)
OVCAR-8
  GI50: > 100 µM (inactive)
DU-145
  GI50: > 100 µM (inactive)
OVCAR-3
  GI50: > 100 µM (inactive)
OVCAR-5
  GI50: > 100 µM (inactive)
SR
  GI50: > 100 µM (inactive)
HCT-116
  GI50: > 100 µM (inactive)
MDA-MB-435
  GI50: > 100 µM (inactive)
MDA-MB-231
  GI50: > 100 µM (inactive)
SW-620
  GI50: > 100 µM (inactive)
BT-549
  GI50: > 100 µM (inactive)
SK-OV-3
  GI50: > 100 µM (inactive)
CAKI-1
  GI50: > 100 µM (inactive)
LOX IMVI
  GI50: > 100 µM (inactive)
ACHN
  GI50: > 100 µM (inactive)
HOP-62
  GI50: > 100 µM (inactive)
NCI-H23
  GI50: > 100 µM (inactive)
SF-539
  GI50: > 100 µM (inactive)
SK-MEL-5
  GI50: > 100 µM (inactive)
PC-3
  GI50: > 100 µM (inactive)
SF-268
  GI50: > 100 µM (inactive)
OVCAR-4
  GI50: > 100 µM (inactive)
U-251
  GI50: > 100 µM (inactive)
UACC-257
  GI50: > 100 µM (inactive)
UO-31
  GI50: > 100 µM (inactive)
MOLT-4
  GI50: > 100 µM (inactive)
Malme-3M
  GI50: > 100 µM (inactive)
HCT-15
  GI50: > 100 µM
SF-295
  GI50: > 100 µM (inactive)
SK-MEL-28
  GI50: > 100 µM (inactive)
HOP-92
  GI50: > 100 µM (inactive)
